{"source": "ChEMBL document CHEMBL5260839", "about": "(J Med Chem, 2019)", "key": {"[1]": {"test": "Toxicity in mouse xenografted with human RS4-11 cells assessed as weight loss at 25 mg/kg, iv administered for one week", "assay_type": "organism-based", "conditions": "in vivo, 168 h, time 1 weeks"}, "[2]": {"test_system": "OCI-AML-5", "test": "Potency index, ratio of MI-1061 IC50 to test compound IC50 for inhibition of cell growth in human OCI-AML5 cells harbouring wild type p53 incubated for 4 days by lactate dehydrogenase based WST-8 assay", "assay_type": "functional", "conditions": "time 4 day"}, "[3]": {"test_system": "RS4-11", "test": "Antitumor activity against human RS4-11 cells xenografted in mouse assessed as reduction in tumor growth at 25 mg/kg, iv administered for a week", "assay_type": "functional, organism-based", "conditions": "time 1.0 weeks"}, "[4]": {"test_system": "RS4-11", "test": "Induction of apoptosis in human RS4-11 cells incubated for 24 hrs by Annexin-V/PI staining based flow cytometric analysis", "assay_type": "functional, cell-based"}, "[5]": {"test_system": "MOLM-14", "test": "Potency index, ratio of MI-1061 IC50 to test compound IC50 for inhibition of cell growth in human MOLM-14 cells harbouring wild type p53 incubated for 4 days by lactate dehydrogenase based WST-8 assay", "assay_type": "functional", "conditions": "time 4 day"}, "[6]": {"test_system": "MONO-MAC-6", "test": "cells", "conditions": "Homo sapiens, MONO-MAC-6, 96 h"}, "[7]": {"test": "Toxicity in mouse xenografted with human RS4-11 cells assessed as weight loss at 50 mg/kg, administered once a week for 3 weeks", "assay_type": "organism-based", "conditions": "in vivo, 504 h"}, "[8]": {"test_system": "RS4-11", "test": "Induction of apoptosis in human RS4-11 cells at 0.001 to 1 uM incubated for 24 hrs by Annexin-V/PI staining based flow cytometric analysis relative to MI-1061", "assay_type": "functional", "conditions": "dose 0.001-1 µM"}, "[9]": {"test_system": "MV4-11", "test": "Inhibition of cell growth in human MV4-11 cells incubated for 4 days in the presence of lenalidomide by Lactate dehydrogenase based WST-8 assay", "assay_type": "functional", "conditions": "time 4.0 day"}, "[10]": {"test_system": "RS4-11", "test": "Inhibition of cell growth in human RS4-11 cells incubated for 4 days in the presence of lenalidomide by Lactate dehydrogenase based WST-8 assay", "assay_type": "functional", "conditions": "time 4.0 day"}, "[11]": {"test_system": "ML-2", "test": "cells", "conditions": "Homo sapiens, ML-2, 96 h"}, "[12]": {"test_system": "ML-2", "test": "Potency index, ratio of MI-1061 IC50 to test compound IC50 for inhibition of cell growth in human ML-2 cells harbouring wild type p53 incubated for 4 days by lactate dehydrogenase based WST-8 assay", "assay_type": "functional", "conditions": "time 4 day"}, "[13]": {"test_system": "RS4-11", "test": "Antitumor activity against human […] cells xenografted in mouse assessed as tumor regression at 25 mg/kg, administered daily 5 days a week for 2 weeks", "assay_type": "functional, organism-based"}, "[14]": {"test_system": "SIG-M5", "test": "cells", "conditions": "Homo sapiens, SIG-M5, 96 h"}, "[15]": {"target": "T1, Protein cereblon/E3 ubiquitin-protein ligase Mdm2 (Homo sapiens) (UniProt Q00987+Q96SW2)", "T1 sequence (Q00987 whole entry, looked up)": "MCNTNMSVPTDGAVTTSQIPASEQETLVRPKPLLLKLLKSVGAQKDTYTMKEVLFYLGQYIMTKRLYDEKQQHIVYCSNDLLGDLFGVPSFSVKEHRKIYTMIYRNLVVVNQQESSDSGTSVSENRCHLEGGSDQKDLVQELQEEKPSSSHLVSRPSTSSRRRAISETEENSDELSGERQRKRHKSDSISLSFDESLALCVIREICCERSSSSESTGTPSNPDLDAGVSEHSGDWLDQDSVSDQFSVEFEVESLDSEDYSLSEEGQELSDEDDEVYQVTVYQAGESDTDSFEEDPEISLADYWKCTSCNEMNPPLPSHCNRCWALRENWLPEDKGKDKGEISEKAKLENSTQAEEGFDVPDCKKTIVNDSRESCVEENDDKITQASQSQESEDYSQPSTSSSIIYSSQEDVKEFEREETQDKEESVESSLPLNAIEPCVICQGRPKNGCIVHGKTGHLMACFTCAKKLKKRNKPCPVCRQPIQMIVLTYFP", "T1 sequence (Q96SW2 whole entry, looked up)": "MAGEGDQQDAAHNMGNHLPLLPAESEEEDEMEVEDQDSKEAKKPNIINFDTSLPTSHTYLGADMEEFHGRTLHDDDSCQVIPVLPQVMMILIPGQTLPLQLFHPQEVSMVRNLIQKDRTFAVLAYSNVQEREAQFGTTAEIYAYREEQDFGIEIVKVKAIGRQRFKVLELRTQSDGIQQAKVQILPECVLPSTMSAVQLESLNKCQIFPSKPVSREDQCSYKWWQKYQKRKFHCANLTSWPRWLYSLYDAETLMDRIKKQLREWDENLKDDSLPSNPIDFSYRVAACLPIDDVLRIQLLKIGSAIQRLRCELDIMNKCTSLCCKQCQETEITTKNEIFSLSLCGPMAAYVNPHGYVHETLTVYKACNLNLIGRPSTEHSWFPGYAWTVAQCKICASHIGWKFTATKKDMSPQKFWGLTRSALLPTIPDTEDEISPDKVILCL", "test": "PROTAC activity at CRBN/MDM2 in human MV4-11 cells assessed as upregulation of MDM2 mRNA expression at 0.1 to 0.3 uM incubated for 6 hrs by qRT-PCR analysis", "assay_type": "cell-based", "conditions": "dose 0.1-0.3 µM"}, "[16]": {"test_system": "MV4-11", "test": "Potency index, ratio of MI-1061 IC50 to test compound IC50 for inhibition of cell growth in human MV4-11 cells incubated for 4 days by lactate dehydrogenase based WST-8 assay", "assay_type": "functional", "conditions": "time 4 day"}, "[17]": {"test_system": "RS4-11", "test": "Antitumor activity against human RS4-11 cells xenografted in mouse assessed as tumor regression at 50 mg/kg, administered every other day for 3 weeks", "assay_type": "functional, organism-based"}, "[18]": {"test_system": "MOLM-14", "test": "cells", "conditions": "Homo sapiens, MOLM-14, 96 h"}, "[19]": {"test_system": "OCI-AML-5", "test": "cells", "conditions": "Homo sapiens, OCI-AML-5, 96 h"}, "[20]": {"target": "T1, Protein cereblon/E3 ubiquitin-protein ligase Mdm2 (Homo sapiens)", "test": "PROTAC activity at CRBN/MDM2 in human MV4-11 cells assessed as upregulation of p21 mRNA expression at 0.1 to 0.3 uM incubated for 6 hrs by qRT-PCR analysis", "assay_type": "cell-based", "conditions": "dose 0.1-0.3 µM"}, "[21]": {"test": "Toxicity in mouse xenografted with human RS4-11 cells assessed as weight loss at 50 mg/kg, administered every other day for 3 weeks", "assay_type": "organism-based", "conditions": "in vivo, 504 h"}, "[22]": {"test": "Toxicity in mouse xenografted with human RS4-11 cells assessed as weight loss at 10 to 25 mg/kg, iv administered three times a week", "assay_type": "organism-based", "conditions": "in vivo, 168 h, dose 10-25 mg/kg, time 1 weeks"}, "[23]": {"test_system": "KG-1", "test": "cells", "conditions": "Homo sapiens, KG-1, 96 h"}, "[24]": {"test": "Toxicity in mouse xenografted with human RS4-11 cells assessed as signs of toxicity at 10 to 25 mg/kg, iv administered three times a week", "assay_type": "organism-based", "conditions": "in vivo, 168 h, dose 10-25 mg/kg, time 1 weeks"}, "[25]": {"target": "T1, Protein cereblon/E3 ubiquitin-protein ligase Mdm2 (Homo sapiens)", "test": "PROTAC activity at CRBN/MDM2 in human MV4-11 cells assessed as upregulation of p53 mRNA expression at 0.1 to 0.3 uM incubated for 6 hrs by qRT-PCR analysis", "assay_type": "cell-based", "conditions": "dose 0.1-0.3 µM"}, "[26]": {"test_system": "MOLM-13", "test": "Potency index, ratio of MI-1061 IC50 to test compound IC50 for inhibition of cell growth in human MOLM-13 cells harbouring wild type p53 incubated for 4 days by lactate dehydrogenase based WST-8 assay", "assay_type": "functional", "conditions": "time 4 day"}, "[27]": {"test_system": "RS4-11", "test": "Antitumor activity against human RS4-11 cells xenografted in mouse assessed as reduction in tumor growth at 10 mg/kg, iv administered three times a week", "assay_type": "functional, organism-based", "conditions": "time 1.0 weeks"}, "[28]": {"test": "Toxicity in mouse xenografted with human RS4-11 cells assessed as signs o toxicity at 50 mg/kg, administered every other day for 3 weeks", "assay_type": "organism-based", "conditions": "in vivo, 504 h"}, "[29]": {"test_system": "RS4-11", "test": "Potency index, ratio of MI-1061 IC50 to test compound IC50 for inhibition of cell growth in human RS4-11 cells incubated for 4 days by lactate dehydrogenase based WST-8 assay", "assay_type": "functional", "conditions": "time 4 day"}, "[30]": {"test": "Toxicity in mouse xenografted with human RS4-11 cells assessed as signs of toxicity at 50 mg/kg, administered once a week for 3 weeks", "assay_type": "organism-based", "conditions": "in vivo, 504 h"}, "[31]": {"target": "T1, Protein cereblon/E3 ubiquitin-protein ligase Mdm2 (Homo sapiens)", "test": "PROTAC activity at CRBN/MDM2 in human MV4-11 cells assessed as upregulation of PUMA mRNA expression at 0.1 to 0.3 uM incubated for 6 hrs by qRT-PCR analysis", "assay_type": "cell-based", "conditions": "dose 0.1-0.3 µM"}, "[32]": {"target": "T1, Protein cereblon/E3 ubiquitin-protein ligase Mdm2 (Homo sapiens)", "test": "PROTAC activity at CRBN/MDM2 in human RS4-11 cells harbouring wildtype p53 assessed as upregulation of TP53 mRNA expression at 0.03 to 0.1 uM incubated for 6 hrs by qRT-PCR analysis", "assay_type": "cell-based", "conditions": "dose 0.03-0.1 µM"}, "[33]": {"test_system": "RS4-11", "test": "Antitumor activity against human RS4-11 cells xenografted in mouse assessed as reduction in tumor growth at 25 mg/kg, iv administered three times a week relative to control", "assay_type": "functional", "design": "scale not given: the % may be the effect or the level left", "conditions": "time 1 weeks"}, "[34]": {"test_system": "RS4-11", "test": "cells", "conditions": "Homo sapiens, RS4-11, 96 h"}, "[35]": {"test_system": "RS4-11", "test": "Antitumor activity against human RS4-11 cells xenografted in mouse assessed as inhibition of tumor growth at 50 mg/kg, administered once a week for 3 weeks", "assay_type": "functional, organism-based"}, "[36]": {"test_system": "MOLM-13", "test": "cells", "conditions": "Homo sapiens, MOLM-13, 96 h"}, "[37]": {"target": "T1, Protein cereblon/E3 ubiquitin-protein ligase Mdm2 (Homo sapiens)", "test": "PROTAC activity at CRBN/MDM2 in human MV4-11 cells assessed as upregulation of TP53 mRNA expression at 0.1 to 0.3 uM incubated for 6 hrs by qRT-PCR analysis", "assay_type": "cell-based", "conditions": "dose 0.1-0.3 µM"}, "[38]": {"test": "Toxicity in mouse xenografted with human RS4-11 cells assessed as signs of toxicity at 25 mg/kg, iv administered for one week", "assay_type": "organism-based", "conditions": "in vivo, 168 h, time 1 weeks"}, "[39]": {"test_system": "SIG-M5", "test": "Potency index, ratio of MI-1061 IC50 to test compound IC50 for inhibition of cell growth in human SIG-M5 cells harbouring wild type p53 incubated for 4 days by lactate dehydrogenase based WST-8 assay", "assay_type": "functional", "conditions": "time 4 day"}}, "note": "pIC50: −log10 of the molar value. Activity calls are given as the source filed them. No cut-off for these calls is given here."}
{"smiles": "O=C1CCC(N2Cc3c(C#CCCCNC(=O)c4ccc(NC(=O)[C@@H]5NC6(CCCCC6)[C@@]6(C(=O)Nc7cc(Cl)ccc76)[C@H]5c5cccc(Cl)c5F)cc4)cccc3C2=O)C(=O)N1", "note": "(some centres undefined)", "values": [{"measurement": "Activity", "setting": "[1]", "value": "Non-Toxic"}, {"measurement": "Ratio IC50", "setting": "[2]", "value": ">10"}, {"measurement": "Activity", "setting": "[3]", "value": "Active"}, {"measurement": "Activity", "setting": "[4]", "value": "Dose-Dependent Effect"}, {"measurement": "Ratio IC50", "setting": "[5]", "value": ">10"}, {"measurement": "pIC50", "setting": "[6]", "value": "< 5.00"}, {"measurement": "Activity", "setting": "[7]", "value": "Non-Toxic"}, {"measurement": "fold change (FC)", "setting": "[8]", "value": ">10"}, {"measurement": "inhibition", "setting": "[9]", "value": "Active"}, {"measurement": "inhibition", "setting": "[10]", "value": "inactive"}, {"measurement": "pIC50", "setting": "[11]", "value": 8.36}, {"measurement": "Ratio IC50", "setting": "[12]", "value": ">10"}, {"measurement": "Activity", "setting": "[13]", "value": "Active"}, {"measurement": "pIC50", "setting": "[14]", "value": 7.70}, {"measurement": "Activity", "setting": "[15]", "value": "Active"}, {"measurement": "Ratio IC50", "setting": "[16]", "value": ">10"}, {"measurement": "Activity", "setting": "[17]", "value": "Active"}, {"measurement": "pIC50", "setting": "[18]", "value": 7.98}, {"measurement": "pIC50", "setting": "[19]", "value": 7.48}, {"measurement": "Activity", "setting": "[20]", "value": "Active"}, {"measurement": "Activity", "setting": "[21]", "value": "Non-Toxic"}, {"measurement": "Activity", "setting": "[22]", "value": "Non-Toxic"}, {"measurement": "pIC50", "setting": "[23]", "value": "< 5.00"}, {"measurement": "Activity", "setting": "[24]", "value": "Non-Toxic"}, {"measurement": "Activity", "setting": "[25]", "value": "Active"}, {"measurement": "Ratio IC50", "setting": "[26]", "value": ">10"}, {"measurement": "Activity", "setting": "[27]", "value": "Active"}, {"measurement": "Activity", "setting": "[28]", "value": "Non-Toxic"}, {"measurement": "Ratio IC50", "setting": "[29]", "value": ">10"}, {"measurement": "Activity", "setting": "[30]", "value": "Non-Toxic"}, {"measurement": "Activity", "setting": "[31]", "value": "Active"}, {"measurement": "Activity", "setting": "[32]", "value": "inactive"}, {"measurement": "Activity", "setting": "[33]", "value": 50, "unit": "%"}, {"measurement": "pIC50", "setting": "[34]", "value": 8.82}, {"measurement": "Activity", "setting": "[35]", "value": "Active"}, {"measurement": "pIC50", "setting": "[36]", "value": 8.14}, {"measurement": "Activity", "setting": "[37]", "value": "inactive"}, {"measurement": "Activity", "setting": "[38]", "value": "Non-Toxic"}, {"measurement": "Ratio IC50", "setting": "[39]", "value": 5.3}]}
